Results as given in patent US20240158430A1, “NOVEL COMPOUND OR SALT THEREOF, AND ANTITUMOR ACTIVATOR CONTAINING SAME AS ACTIVE INGREDIENT” (AKITA UNIVERSITY, priority 2021, published 2024).

System: malignant pleural mesothelioma cell line NCI-H226
Experiment: Cell growth inhibitory activity, NCI-H226
Format: cell-based
Conditions: Table 8
Description: The cell growth inhibitory activity against a colorectal cancer cell line HCT116 was measured. As an index of cell growth inhibitory activity, a concentration at which cell growth was inhibited by 50% as compared with a control (IC50) was used. The method is as follows. HCT116 was added to a 6-well plate by 5×10^4, compounds having various concentrations were added after 24 hours, and the number of cells was counted after 72 hours of culture. As the control, DMSO was used in an amount equal to the amount added in accordance with the addition concentration of the highest-concentration compound. The number of cells at each concentration relative to the control was expressed as a percentage. In Table 3, the turbidities of the compounds are also indicated.
GO-Y198, GO-Y199, and GO-Y200 against malignant pleural mesothelioma cell lines NCI-H226 and MSTO211H was measured. The method is as described above. For comparison, the IC50 of cisplatin (CDDP), a cytocidal anticancer agent, is also indicated.

## COCOc1cc(/C=C/C(=O)CC(SCCOCCOCCOCCOCc2cn([C@@H]3O[C@H](CO)[C@@H](O[C@@H]4O[C@H](CO)[C@H](O)[C@H](O)[C@H]4O)[C@H](O)[C@H]3O)nn2)c2cc(OCOC)cc(OCOC)c2)cc(OCOC)c1 (stereo partly shown) [GO-Y199]
  IC50: 4.7 µM
